In brackets after ≈: the same amount, converted by molar mass.
Experiments:
Hepatitis B virus = experiment: Antiviral activity against HBV infected in HepDE19 cells; type: functional, organism-based
[1] = Cytotoxicity against human HepDE19 cells by CellTiter-Glo analysis; type: toxicity, cell-based
[2] = Microsomal stability in mouse liver microsomes assessed as intrinsic clearance; type: ADME, Microsome; conditions: read-out: CLH
[3] = Microsomal stability in human liver microsomes assessed as intrinsic clearance; type: ADME, Microsome; conditions: read-out: CLH
[4] = Kinetic solubility in PBS at pH 7.4; type: physicochemical; conditions: read-out: Kinetic_solubility

Row | Compound | EC50 (Hepatitis B virus) [nM] | CC50 [1] [nM] | microsomal CLint [2] [µL/min/mg] | microsomal CLint [3] [µL/min/mg] | solubility kinetic [4] [µM]
1 | C[C@H](c1c[nH]c(=O)c2cc(F)c(F)cc12)N(C)C(=O)Nc1ccc(F)c(F)c1 | 13 | > 25000 | 37 | 25 | 179 (≈ 70.4 µg/mL)
2 | C[C@H](c1c[nH]c(=O)c2cc(F)c(F)cc12)N(C)C(=O)Nc1cccc(F)c1F | 290 | > 25000 | – | – | –
3 | COc1ccc2c(=O)[nH]cc([C@@H](C)N(C)C(=O)Nc3ccc(F)c(Cl)c3)c2c1 | 1400 | > 25000 | – | – | 42 (≈ 17 µg/mL)
4 | CC(c1c[nH]c(=O)c2cc(Cl)ccc12)N(C)C(=O)Nc1ccc(F)c(Cl)c1 (racemic) | 200 | > 25000 | – | – | –
5 | C[C@H](c1c[nH]c(=O)c2c(F)cc(F)cc12)N(C)C(=O)Nc1ccc(F)c(Cl)c1 | 19 | > 25000 | 25 | 25 | 97 (≈ 39.8 µg/mL)
6 | C[C@H](c1c[nH]c(=O)c2cc(F)c(F)cc12)N(C)C(=O)Nc1cccc(F)c1 | 37 | > 25000 | 35 | 30 | > 200
7 | CCCN(Cc1c[nH]c(=O)c2ccccc12)C(=O)Nc1ccc(F)c(Cl)c1 | 60 | > 25000 | – | – | –
8 | COCCCN(Cc1c[nH]c(=O)c2ccccc12)C(=O)Nc1ccc(F)c(Cl)c1 | 130 | > 25000 | – | – | –
9 | CCCCN(C(=O)Nc1ccc(F)c(Cl)c1)C(C)c1c[nH]c(=O)c2ccccc12 (stereo not given) | 6 | > 25000 | 243 | 143 | –
10 | CCN(Cc1c[nH]c(=O)c2ccccc12)C(=O)Nc1ccc(F)c(Cl)c1 | 160 | > 25000 | – | – | –
11 | C[C@H](c1c[nH]c(=O)c2cc(F)c(F)cc12)N(C)C(=O)Nc1ccc(F)cc1 | 24 | > 25000 | 35 | 17 | 190 (≈ 71.3 µg/mL)
12 | C[C@H](c1c[nH]c(=O)c2cc(F)c(F)cc12)N(C)C(=O)c1nc2ccccc2[nH]1 | 760 | > 25000 | – | – | –
13 | C[C@H](c1c[nH]c(=O)c2cc(F)c(F)cc12)N(C)C(=O)[C@H]1Cc2ccccc2N1 | 300 | > 25000 | – | – | –
14 | C[C@H](c1c[nH]c(=O)c2cc(F)c(F)cc12)N(C)C(=O)Nc1ccccc1 | 110 | > 25000 | – | – | –
15 | C[C@H](c1c[nH]c(=O)c2cc(F)ccc12)N(C)C(=O)Nc1ccc(F)c(Cl)c1 | 20 | > 25000 | 37 | 28 | 98 (≈ 38.4 µg/mL)
16 | COc1ccc2c([C@@H](C)N(C)C(=O)Nc3ccc(F)c(Cl)c3)c[nH]c(=O)c2c1 | 180 | > 25000 | – | – | < 4
17 | O=C(NCc1c[nH]c(=O)c2ccccc12)Nc1ccc(F)c(Cl)c1 | 6800 | > 25000 | – | – | –
18 | C[C@H](c1c[nH]c(=O)c2cc(F)c(F)cc12)N(C)C(=O)c1cc2ccccc2[nH]1 | 23 | > 25000 | 50 | 26 | < 4
19 | C[C@H](c1c[nH]c(=O)c2ccc(F)cc12)N(C)C(=O)Nc1ccc(F)c(Cl)c1 | 32 | > 25000 | – | – | 82 (≈ 32.1 µg/mL)
20 | CCCN(C(=O)Nc1ccc(F)c(Cl)c1)[C@H](C)c1c[nH]c(=O)c2ccccc12 | 9 | > 25000 | 190 | 110 | –
21 | COCCCN(C(=O)Nc1ccc(F)c(Cl)c1)C(C)c1c[nH]c(=O)c2ccccc12 (stereo not given) | 32 | > 25000 | 182 | 54 | –

Row | Compound | EC50 (Hepatitis B virus) [nM] | CC50 [1] [nM] | microsomal CLint [2] [µL/min/mg] | microsomal CLint [3] [µL/min/mg] | solubility kinetic [4] [µM]
22 | CC(c1c[nH]c(=O)c2ccccc12)N(CCCO)C(=O)Nc1ccc(F)c(Cl)c1 (stereo not given) | 10 | > 25000 | 185 | 71 | –
23 | CC(C)CN(C(=O)Nc1ccc(F)c(Cl)c1)C(C)c1c[nH]c(=O)c2ccccc12 (stereo not given) | 7 | > 25000 | > 300 | 260 | –
24 | C[C@H](c1c[nH]c(=O)c2c(F)cccc12)N(C)C(=O)Nc1ccc(F)c(Cl)c1 | 40 | > 25000 | – | – | 146 (≈ 57.2 µg/mL)
25 | C[C@H](c1c[nH]c(=O)c2c(F)c(F)ccc12)N(C)C(=O)Nc1ccc(F)c(Cl)c1 | 15 | > 25000 | 32 | 28 | 92 (≈ 37.7 µg/mL)
26 | COCCN(C(=O)Nc1ccc(F)c(Cl)c1)C(C)c1c[nH]c(=O)c2ccccc12 (stereo not given) | 91 | > 25000 | 238 | 69 | –
27 | C[C@H](c1c[nH]c(=O)c2c(Cl)cccc12)N(C)C(=O)Nc1ccc(F)c(Cl)c1 | 85 | > 25000 | – | – | < 4
28 | COc1cccc2c(=O)[nH]cc([C@@H](C)N(C)C(=O)Nc3ccc(F)c(Cl)c3)c12 | 1500 | > 25000 | – | – | –
29 | CCCCN(Cc1c[nH]c(=O)c2ccccc12)C(=O)Nc1ccc(F)c(Cl)c1 | 80 | > 25000 | – | – | –
30 | COc1ncc(CN(C)C(=O)Nc2ccc(F)c(Cl)c2)c2ccccc12 | 2000 | – | – | – | –
31 | CC(c1c[nH]c(=O)c2ccccc12)N(C(=O)Nc1ccc(F)c(Cl)c1)C1CC1 (stereo not given) | 55 | > 25000 | 172 | 152 | –
32 | C[C@H](c1c[nH]c(=O)c2cc(F)c(F)cc12)N(C)C(=O)c1cc2cc(F)c(F)cc2[nH]1 | 12 | > 25000 | 22 | 14 | 5 (≈ 2.09 µg/mL)
33 | C[C@H](c1c[nH]c(=O)c2ccc(Cl)cc12)N(C)C(=O)Nc1ccc(F)c(Cl)c1 | 120 | > 25000 | – | – | 18 (≈ 7.35 µg/mL)
34 | CCN(C(=O)Nc1ccc(F)c(Cl)c1)C(C)c1c[nH]c(=O)c2ccccc12 (stereo not given) | 25 | > 25000 | 32 | 62 | –
35 | COCCN(Cc1c[nH]c(=O)c2ccccc12)C(=O)Nc1ccc(F)c(Cl)c1 | 470 | > 25000 | – | – | –
36 | C[C@H](c1c[nH]c(=O)c2cc(F)c(F)cc12)N(C)C(=O)[C@@H]1Cc2ccccc2N1 | 22 | > 25000 | 375 | 28 | 62 (≈ 23.8 µg/mL)
37 | C[C@H](c1c[nH]c(=O)c2cc(F)c(F)cc12)N(C)C(=O)c1cc2ccc(F)cc2[nH]1 | 22 | > 25000 | 33 | 13 | 12 (≈ 4.79 µg/mL)
38 | COc1ncc(CNC(=O)Nc2ccc(F)c(Cl)c2)c2ccccc12 | 9000 | – | – | – | –
39 | C[C@H](c1c[nH]c(=O)c2cc(F)c(F)cc12)N(C)C(=O)Nc1cccc(Cl)c1 | 18 | > 25000 | 30 | 32 | 72 (≈ 28.2 µg/mL)
40 | Cc1cc(NC(=O)N(C)[C@H](C)c2c[nH]c(=O)c3cc(F)c(F)cc23)ccc1F | 7 | > 25000 | 60 | 42 | 95 (≈ 37 µg/mL)
41 | O=C(Nc1ccc(F)c(Cl)c1)N(Cc1c[nH]c(=O)c2ccccc12)C1CC1 | 810 | > 25000 | – | – | –
42 | CN(Cc1c[nH]c(=O)c2ccccc12)C(=O)Nc1ccc(F)c(Cl)c1 | 470 | > 25000 | – | – | –

From ChEMBL document CHEMBL5579892, “Rational Design, Synthesis, and Structure-Activity Relationship of a Novel Isoquinolinone-Based Series of HBV Capsid Assembly Modulators Leading to the Identification of Clinical Candidate AB-836” (J Med Chem, 2024)
